Laboratory results taken from US20230295119A1, “SUBSTITUTED PYRIDINES FOR THE TREATMENT OF INFLAMMATORY DISEASES” (GOSSAMER BIO SERVICES, INC., priority 2020, published 2023).
pIC50: −log10 of the molar value.

How the values were obtained:
TYK2 JH2 domain = TYK2 JH2 domain (Homo sapiens (Human), UniProt P29597); test: TYK2 JH2 NanoBRET assay; assay type: binding; conditions: Table 20, read-out: TYK2 IC50
How it was run: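 HEK293T cells transiently expressing NanoLuc-TYK2 JH2 fusion, incubated 2 h with compound and NanoBRET K10 tracer (0.5 µM final). Target engagement read as acceptor/donor BRET ratio after Nano-Glo substrate plus extracellular NanoLuc inhibitor.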

human JAK1 = human JAK1 (Homo sapiens (Human), UniProt P23458); test: JAK1 TR-FRET kinase assay; assay type: biochemical; conditions: TR-FRET, JAK1 2.5 nM
Sequence of human JAK1 (P23458 whole entry): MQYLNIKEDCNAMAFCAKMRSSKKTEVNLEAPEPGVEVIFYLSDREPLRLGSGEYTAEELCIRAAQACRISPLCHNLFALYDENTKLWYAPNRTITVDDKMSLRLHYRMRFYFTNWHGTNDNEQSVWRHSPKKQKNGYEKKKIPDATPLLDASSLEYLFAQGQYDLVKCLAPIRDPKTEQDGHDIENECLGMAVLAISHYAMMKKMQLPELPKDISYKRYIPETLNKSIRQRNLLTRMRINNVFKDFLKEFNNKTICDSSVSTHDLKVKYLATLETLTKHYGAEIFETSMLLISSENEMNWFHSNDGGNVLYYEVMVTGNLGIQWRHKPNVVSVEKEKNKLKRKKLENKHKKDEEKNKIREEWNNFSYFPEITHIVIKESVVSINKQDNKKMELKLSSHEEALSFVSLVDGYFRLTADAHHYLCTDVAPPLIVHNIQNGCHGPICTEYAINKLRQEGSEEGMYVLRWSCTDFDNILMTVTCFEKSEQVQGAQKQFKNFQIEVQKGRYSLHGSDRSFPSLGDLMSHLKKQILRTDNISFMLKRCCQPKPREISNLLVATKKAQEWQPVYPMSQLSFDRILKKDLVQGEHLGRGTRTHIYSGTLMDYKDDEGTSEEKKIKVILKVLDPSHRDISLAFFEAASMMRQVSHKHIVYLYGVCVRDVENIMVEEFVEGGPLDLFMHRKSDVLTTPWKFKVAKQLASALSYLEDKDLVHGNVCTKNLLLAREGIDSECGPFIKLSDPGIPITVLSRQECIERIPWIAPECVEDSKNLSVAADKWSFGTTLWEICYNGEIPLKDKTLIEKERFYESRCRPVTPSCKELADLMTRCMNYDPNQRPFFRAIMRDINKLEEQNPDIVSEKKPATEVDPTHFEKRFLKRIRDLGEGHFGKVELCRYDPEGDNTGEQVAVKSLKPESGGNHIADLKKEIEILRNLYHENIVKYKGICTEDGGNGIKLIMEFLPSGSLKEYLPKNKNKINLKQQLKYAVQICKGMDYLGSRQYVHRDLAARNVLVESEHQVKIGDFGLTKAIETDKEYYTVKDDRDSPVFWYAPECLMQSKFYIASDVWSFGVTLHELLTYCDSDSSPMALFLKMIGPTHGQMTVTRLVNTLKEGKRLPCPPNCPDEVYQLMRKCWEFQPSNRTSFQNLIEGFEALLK

human JAK2 = human JAK2 (Homo sapiens (Human), UniProt O60674); test: JAK2 TR-FRET kinase assay; assay type: biochemical; conditions: JAK2 0.025 nM
Sequence of human JAK2 (O60674 whole entry): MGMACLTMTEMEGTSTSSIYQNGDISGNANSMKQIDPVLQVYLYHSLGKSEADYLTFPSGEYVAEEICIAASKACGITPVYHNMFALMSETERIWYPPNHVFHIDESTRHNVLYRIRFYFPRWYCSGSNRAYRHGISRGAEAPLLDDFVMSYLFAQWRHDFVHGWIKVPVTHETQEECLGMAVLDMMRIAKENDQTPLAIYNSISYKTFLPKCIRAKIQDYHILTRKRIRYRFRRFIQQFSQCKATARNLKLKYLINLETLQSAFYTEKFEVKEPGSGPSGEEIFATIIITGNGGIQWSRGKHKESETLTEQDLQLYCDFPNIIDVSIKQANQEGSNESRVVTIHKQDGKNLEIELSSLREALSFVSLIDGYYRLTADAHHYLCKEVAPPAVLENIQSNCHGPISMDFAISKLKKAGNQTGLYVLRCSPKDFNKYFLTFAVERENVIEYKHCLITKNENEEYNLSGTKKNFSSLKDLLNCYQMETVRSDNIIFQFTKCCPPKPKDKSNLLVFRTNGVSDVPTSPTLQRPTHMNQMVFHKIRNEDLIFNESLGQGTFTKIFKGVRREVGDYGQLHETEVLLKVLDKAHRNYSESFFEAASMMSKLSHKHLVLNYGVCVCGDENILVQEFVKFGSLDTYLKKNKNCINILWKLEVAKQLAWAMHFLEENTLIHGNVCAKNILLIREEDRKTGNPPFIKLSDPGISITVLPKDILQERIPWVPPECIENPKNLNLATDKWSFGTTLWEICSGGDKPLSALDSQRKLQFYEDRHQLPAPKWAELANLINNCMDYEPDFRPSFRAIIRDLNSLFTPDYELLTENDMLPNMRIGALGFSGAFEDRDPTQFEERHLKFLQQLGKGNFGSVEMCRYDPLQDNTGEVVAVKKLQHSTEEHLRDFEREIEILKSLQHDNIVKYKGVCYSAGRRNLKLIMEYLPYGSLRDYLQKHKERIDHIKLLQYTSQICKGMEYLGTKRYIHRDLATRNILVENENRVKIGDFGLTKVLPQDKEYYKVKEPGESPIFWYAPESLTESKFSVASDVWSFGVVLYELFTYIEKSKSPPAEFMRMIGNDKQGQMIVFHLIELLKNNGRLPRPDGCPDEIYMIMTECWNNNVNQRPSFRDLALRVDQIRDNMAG

human JAK3 = human JAK3 (Homo sapiens (Human), UniProt P52333); test: JAK3 TR-FRET kinase assay; assay type: biochemical; conditions: JAK3 0.0125 nM
Sequence of human JAK3 (P52333 whole entry): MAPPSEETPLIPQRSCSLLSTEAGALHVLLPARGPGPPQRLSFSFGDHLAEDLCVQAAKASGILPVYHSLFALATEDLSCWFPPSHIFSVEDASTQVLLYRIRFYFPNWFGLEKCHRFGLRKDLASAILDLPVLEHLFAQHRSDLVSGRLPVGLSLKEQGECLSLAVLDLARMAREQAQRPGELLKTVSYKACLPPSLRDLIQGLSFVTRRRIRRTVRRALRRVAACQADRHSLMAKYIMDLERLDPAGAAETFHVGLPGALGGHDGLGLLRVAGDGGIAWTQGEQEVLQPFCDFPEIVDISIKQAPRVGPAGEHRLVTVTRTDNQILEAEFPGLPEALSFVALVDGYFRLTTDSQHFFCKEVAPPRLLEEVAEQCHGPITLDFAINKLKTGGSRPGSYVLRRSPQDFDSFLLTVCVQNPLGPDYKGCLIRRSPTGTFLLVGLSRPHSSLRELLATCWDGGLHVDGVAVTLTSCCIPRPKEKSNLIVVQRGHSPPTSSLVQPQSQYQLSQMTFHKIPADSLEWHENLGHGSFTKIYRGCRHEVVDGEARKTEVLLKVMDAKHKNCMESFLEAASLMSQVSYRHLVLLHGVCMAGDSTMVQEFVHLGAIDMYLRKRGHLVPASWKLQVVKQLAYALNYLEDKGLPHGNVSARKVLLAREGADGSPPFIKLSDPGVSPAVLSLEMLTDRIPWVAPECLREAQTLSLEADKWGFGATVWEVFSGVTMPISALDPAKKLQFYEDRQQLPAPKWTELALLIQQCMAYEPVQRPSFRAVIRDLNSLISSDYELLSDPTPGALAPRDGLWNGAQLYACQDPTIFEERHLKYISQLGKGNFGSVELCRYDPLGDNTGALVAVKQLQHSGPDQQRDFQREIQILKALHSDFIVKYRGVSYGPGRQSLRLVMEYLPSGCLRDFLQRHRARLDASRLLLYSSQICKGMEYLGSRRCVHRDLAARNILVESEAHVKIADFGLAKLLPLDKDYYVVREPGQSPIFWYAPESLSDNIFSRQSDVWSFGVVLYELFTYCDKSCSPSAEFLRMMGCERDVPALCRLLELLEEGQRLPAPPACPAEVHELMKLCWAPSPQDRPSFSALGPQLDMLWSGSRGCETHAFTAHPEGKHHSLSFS

Sequence of TYK2 JH2 domain (P29597 589-875): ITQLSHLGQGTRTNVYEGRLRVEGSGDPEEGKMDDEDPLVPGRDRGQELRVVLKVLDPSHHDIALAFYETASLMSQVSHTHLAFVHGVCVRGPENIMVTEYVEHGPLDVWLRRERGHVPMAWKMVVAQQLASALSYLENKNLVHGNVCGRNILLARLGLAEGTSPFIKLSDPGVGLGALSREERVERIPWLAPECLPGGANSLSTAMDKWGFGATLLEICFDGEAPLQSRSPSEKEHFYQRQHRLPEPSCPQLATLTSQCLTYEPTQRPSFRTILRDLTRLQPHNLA

SMILES | pIC50 (TYK2 JH2 domain) | pIC50 (human JAK1) | pIC50 (human JAK2) | pIC50 (human JAK3)
CCC(=O)c1cnc(Nc2ccc(O[C@@H]3CCN(C)C3)c(C)n2)cc1Nc1cccc(-c2ncn(C)n2)c1OC [Compound 18YYY] | > 8.30 | ≤ 6.30 | ≤ 6.30 | 6.30 to 7.30
CCC(=O)c1cnc(Nc2cnc(OCCN3CC[C@@H](F)C3)cn2)cc1Nc1cccc(-c2ncn(C)n2)c1OC [Compound 18YY] | 7.30 to 8.30 | ≤ 6.30 | ≤ 6.30 | ≤ 6.30
CCC(=O)c1cnc(Nc2ccc(OC3CCN(C)CC3)cn2)cc1Nc1cccc(-c2ncn(C)n2)c1OC [Compound 18Y] | > 8.30 | ≤ 6.30 | 6.30 to 7.30 | 6.30 to 7.30
CCC(=O)c1cnc(Nc2ccc(OC3COC3)c(C)n2)cc1Nc1cccc(-c2ncn(C)n2)c1OC [Compound 18ZZZ] | > 8.30 | ≤ 6.30 | 6.30 to 7.30 | 6.30 to 7.30
CCC(=O)c1cnc(Nc2cnc(OCCN3CCC(F)(F)C3)cn2)cc1Nc1cccc(-c2ncn(C)n2)c1OC [Compound 18ZZ] | 7.30 to 8.30 | ≤ 6.30 | ≤ 6.30 | ≤ 6.30
CCC(=O)c1cnc(Nc2ccc(OC3COC3)cn2)cc1Nc1cccc(-c2ncn(C)n2)c1OC [Compound 18Z] | > 8.30 | ≤ 6.30 | ≤ 6.30 | ≤ 6.30
CCC(=O)c1cnc(Nc2cnc(C(F)(F)CNC)cn2)cc1Nc1cccc(-c2ncn(C)n2)c1OC [Compound 19B] | 6.30 to 7.30 | ≤ 6.30 | ≤ 6.30 | ≤ 6.30
CCC(=O)c1cnc(Nc2cnc(C(F)(F)CN(C)C)cn2)cc1Nc1cccc(-c2ncn(C)n2)c1OC [Compound 19C] | 7.30 to 8.30 | ≤ 6.30 | ≤ 6.30 | ≤ 6.30
CCC(=O)c1cnc(Nc2cnc(C(F)(F)CO)cn2)cc1Nc1cccc(-c2ncn(C)n2)c1OC [Compound 19D] | 7.30 to 8.30 | ≤ 6.30 | ≤ 6.30 | ≤ 6.30
CCC(=O)c1cnc(Nc2cnc(C(F)(F)CN3CCCC3)cn2)cc1Nc1cccc(-c2ncn(C)n2)c1OC [Compound 19E] | 7.30 to 8.30 | ≤ 6.30 | ≤ 6.30 | ≤ 6.30

Results, then the molecule that gave them:

pIC50 (TYK2 JH2 domain) | pIC50 (human JAK1) | pIC50 (human JAK2) | pIC50 (human JAK3) | SMILES
> 8.30 | ≤ 6.30 | ≤ 6.30 | ≤ 6.30 | CCC(=O)c1cnc(Nc2ccn(-c3ccccc3)c(=O)n2)cc1Nc1cccc(-c2ncn(C)n2)c1OC [Compound 20A, 4-((4-((2-methoxy-3-(1-methyl-1H-1,2,4-triazol-3-yl)phenyl)amino)-5-propionylpyridin-2-yl)amino)-1-phenylpyrimidin-2(1H)-one]
7.30 to 8.30 | ≤ 6.30 | ≤ 6.30 | ≤ 6.30 | CCC(=O)c1cnc(Nc2ccn([C@H]3C[C@@H](OC)C3)n2)cc1Nc1cccc(-c2ncn(C)n2)c1OC [Compound 21A, 1-(4-((2-methoxy-3-(1-methyl-1H-1,2,4-triazol-3-yl)phenyl)amino)-6-((1-(3-methoxycyclobutyl)-1H-pyrazol-3-yl)amino)pyridin-3-yl)propan-1-one]
7.30 to 8.30 | ≤ 6.30 | ≤ 6.30 | 6.30 to 7.30 | CCC(=O)c1cnc(Nc2cc(OCCO)n(C)n2)cc1Nc1cccc(-c2ncn(C)n2)c1OC [Compound 21AA]
> 8.30 | ≤ 6.30 | ≤ 6.30 | ≤ 6.30 | CCC(=O)c1cnc(Nc2ccn([C@H]3C[C@@H](OC(F)F)C3)n2)cc1Nc1cccc(-c2ncn(C)n2)c1OC [Compound 21BB]
7.30 to 8.30 | ≤ 6.30 | ≤ 6.30 | ≤ 6.30 | CCC(=O)c1cnc(Nc2ccn(CCOC)n2)cc1Nc1cccc(-c2ncn(C)n2)c1OC [Compound 21B]
7.30 to 8.30 | ≤ 6.30 | ≤ 6.30 | ≤ 6.30 | CCO[C@H]1C[C@@H](n2ccc(Nc3cc(Nc4cccc(-c5ncn(C)n5)c4OC)c(C(=O)CC)cn3)n2)C1 [Compound 21CC]
7.30 to 8.30 | ≤ 6.30 | ≤ 6.30 | ≤ 6.30 | CCC(=O)c1cnc(Nc2ccn(CCN3CCCC3)n2)cc1Nc1cccc(-c2ncn(C)n2)c1OC [Compound 21C]
7.30 to 8.30 | ≤ 6.30 | ≤ 6.30 | ≤ 6.30 | CCC(=O)c1cnc(Nc2cc(C)n([C@H]3C[C@@H](O)C3)n2)cc1Nc1cccc(-c2ncn(C)n2)c1OC [Compound 21DD]
7.30 to 8.30 | ≤ 6.30 | ≤ 6.30 | ≤ 6.30 | CCC(=O)c1cnc(Nc2ccn(S(=O)(=O)C3CC3)n2)cc1Nc1cccc(-c2ncn(C)n2)c1OC [Compound 21D]
> 8.30 | ≤ 6.30 | ≤ 6.30 | ≤ 6.30 | CCC(=O)c1cnc(Nc2cc(C)n([C@H]3C[C@@H](OC)C3)n2)cc1Nc1cccc(-c2ncn(C)n2)c1OC [Compound 21EE]
> 8.30 | ≤ 6.30 | ≤ 6.30 | ≤ 6.30 | CCC(=O)c1cnc(Nc2ccn(-c3ccccn3)n2)cc1Nc1cccc(-c2ncn(C)n2)c1OC [Compound 21E]
> 8.30 | ≤ 6.30 | ≤ 6.30 | ≤ 6.30 | CCO[C@H]1C[C@@H](n2nc(Nc3cc(Nc4cccc(-c5ncn(C)n5)c4OC)c(C(=O)CC)cn3)cc2C)C1 [Compound 21FF]
7.30 to 8.30 | ≤ 6.30 | ≤ 6.30 | ≤ 6.30 | CCC(=O)c1cnc(Nc2csc(CN3CCCC3)n2)cc1Nc1cccc(-c2ncn(C)n2)c1OC [Compound 21F]
7.30 to 8.30 | ≤ 6.30 | ≤ 6.30 | ≤ 6.30 | CCC(=O)c1cnc(Nc2ccn(C3CC(F)(F)C3)n2)cc1Nc1cccc(-c2ncn(C)n2)c1OC [Compound 21GG]
> 8.30 | ≤ 6.30 | 6.30 to 7.30 | 6.30 to 7.30 | CCC(=O)c1cnc(Nc2cc(CN3CCCC3)n(C)n2)cc1Nc1cccc(-c2ncn(C)n2)c1OC [Compound 21G]
6.30 to 7.30 | ≤ 6.30 | ≤ 6.30 | ≤ 6.30 | CCC(=O)c1cnc(Nc2nc(CN3CCCC3)ns2)cc1Nc1cccc(-c2ncn(C)n2)c1OC [Compound 21H]
> 8.30 | ≤ 6.30 | 6.30 to 7.30 | 6.30 to 7.30 | CCC(=O)c1cnc(Nc2cc(CN3CCCC3)sn2)cc1Nc1cccc(-c2ncn(C)n2)c1OC [Compound 21I]
7.30 to 8.30 | ≤ 6.30 | ≤ 6.30 | ≤ 6.30 | CCC(=O)c1cnc(Nc2ccn([C@H]3C[C@@H](O)C3)n2)cc1Nc1cccc(-c2ncn(C)n2)c1OC [Compound 21J]
7.30 to 8.30 | ≤ 6.30 | ≤ 6.30 | ≤ 6.30 | CCC(=O)c1cnc(Nc2ccn([C@H]3C[C@H](OC)C3)n2)cc1Nc1cccc(-c2ncn(C)n2)c1OC [Compound 21L]
7.30 to 8.30 | ≤ 6.30 | ≤ 6.30 | 6.30 to 7.30 | CCC(=O)c1cnc(Nc2ccn(CCC#N)n2)cc1Nc1cccc(-c2ncn(C)n2)c1OC [Compound 21M]
7.30 to 8.30 | ≤ 6.30 | ≤ 6.30 | ≤ 6.30 | CCC(=O)c1cnc(Nc2ccn([C@H]3C[C@@H](C#N)C3)n2)cc1Nc1cccc(-c2ncn(C)n2)c1OC [Compound 21N]
